Source: patent US4497816A, “7-(4-Pyridyl)-1,8-naphthyridine derivatives and their antibacterial compositions” (Dainippon Pharmaceutical Co., Ltd., priority 1982, dated 1985)
In brackets after ≈: the same amount, converted by molar mass.

Columns and labels:
[1] = system: Pseudomonas aeruginosa No. 12; test: In vivo efficacy against the systemic infections in mice (Pseudomonas aeruginosa); set-up: species or system mice (male ddY); settings: Pseudomonas aeruginosa No. 12, intraperitoneal infection; oral, twice, about 5 minutes and 6 hours after infection
Experimental: (§1) Compounds 1, A and NA were each suspended in a 0.2%
(§2) aqueous solution of sodium carboxymethylcellulose.
(§3) Each of the solutions was orally administered to
(§4) mice infected with each of the test organisms under
(§5) the conditions described below, and the median
(§6) effective dose (ED50) was calculated in accordance
(§7) with the Behrens-Kaerber method [Arch. Exp. Path.
(§8) Experimental conditions:
(§9) Mice: Male mice (ddY) weighing about 20 g
Pseudomonas aeruginosa No. 12
Intraperitoneal infection with about 5 × 10^3
(§10) cells per mouse suspended in trypto-soy
(§11) Twice, about 5 minutes and 6 hours after […]

Escherichia coli P-5101 [2] = test: In vitro antibacterial activity (MIC), agar dilution method; assay type: cell-based; settings: P5101
Experimental: (§12) *^3 In vitro antibacterial activity
(§13) The minimum inhibitory concentrations (MIC:
(§14) μg/ml) shown in Table 1 were determined according
(§15) to the agar dilution method recommended by Japan
(§16) Society of Chemotherpy (1980)

[3] = system: Pseudomonas aeruginosa No. 12; test: as above; assay type: cell-based
Experimental: as §12, §13, §14, §15, §16

[4] = system: Staphylococcus aureus No. 50774; test: as above; assay type: cell-based
Experimental: as §12, §13, §14, §15, §16

[5] = system: Staphylococcus aureus No. 50774; test: In vivo efficacy against the systemic infections in mice (Staphylococcus aureus); set-up: species or system mice (male ddY); settings: 336 h; Staphylococcus aureus No. 50774, intravenous infection; oral, twice, about 5 minutes and 6 hours after infection; observed 14 days
Experimental: as §1, §2, §3, §4, §5, §6, §7, §8, §9
Staphylococcus aureus No. 50774
Intravenous infection with about 5 × 10^8
cells per mouse suspended in saline
Twice, about 5 minutes and 6 hours after
Staphylococcus aureus No. 50774-for 14 days

[6] = Acute oral toxicity in mice; settings: mouse, in vivo, female mice (ddY), deaths counted after 7 days
Experimental: *^5 Acute oral toxicity in mice
A suspension containing compound 1 in various
concentrations was orally given to female mice
(ddY) at a volume of 0.1 ml per 10 g of body weight.
The number of dead mice was counted after 7 days,
and the value of median lethal dose (LD50) was
calculated in accordance with the Behrens-Kaerber

Escherichia coli P-5101 [7] = test: In vivo efficacy against the systemic infections in mice (Escherichia coli); set-up: species or system mice (male ddY); settings: P5101; Escherichia coli P-5101, intraperitoneal infection; oral, twice, about 5 minutes and 6 hours after infection
Experimental: as §1, §2, §3, §4, §5, §6, §7, §8, §9
Escherichia coli P-5101
Intraperitoneal infection with about 9 × 10^6
as §10, §11

Structure (SMILES)	ED50 [1] [mg/kg]	MIC (Escherichia coli P-5101 [2]) [µg/mL]	MIC [3] [µg/mL]	MIC [4] [µg/mL]	ED50 [5] [mg/kg]	LD50 at 168 h [6] [mg/kg]	ED50 (Escherichia coli P-5101 [7]) [mg/kg]
CCn1cc(C(=O)O)c(=O)c2ccc(C)nc21 [NA, 1-ethyl-1,4-dihydro-7-methyl-4-oxo-1,8-naphthyridine-3-carboxylic acid]	267	3.13 (≈ 13.5 µM)	200 (≈ 861 µM)	50 (≈ 215 µM)	767		
CCn1cc(C(=O)O)c(=O)c2cc(F)c(-c3ccncc3)nc21 [Compound 1, 1-Ethyl-6-fluoro-1,4-dihydro-4-oxo-7-(4-pyridyl)-1,8-naphthyridine-3-carboxylic acid]	12.2	0.2 (≈ 0.638 µM)	3.13 (≈ 9.99 µM)	0.2 (≈ 0.638 µM)	2.84	> 2000	3.1
CCn1cc(C(=O)O)c(=O)c2ccc(-c3ccncc3)nc21 [Compound A, 1-ethyl-1,4-dihydro-4-oxo-7-(4-pyridyl)-1,8-naphthyridine-3-carboxylic acid]	> 100	0.78 (≈ 2.64 µM)	12.5 (≈ 42.3 µM)	1.56 (≈ 5.28 µM)	23.7		21
